This note sets out measurements from ChEMBL document CHEMBL1201862, “PubChem BioAssay data set” (2004).

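Assay format: 96-well plates, 48-hour exposure. Abbreviation: GI50, concentration required for 50% inhibition of growth.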 Calls of active or inactive are those of the source. Cut-off read from the data, not from the text of the source: active = GI50 up to about 1.1 µM and inactive = higher. Some results are limits rather than exact numbers.

Test systems include SK-MEL-28; MDA-MB-435; HCT-116; COLO 205; NCI-H460; NCI-H226; ACHN; SK-MEL-2; UACC-257; EKVX; SW-620; OVCAR-5; HOP-18; RXF 393; NCI/ADR-RES; OVCAR-8; HCC 2998; SK-OV-3; HL-60; MDA-N.
Experiment in all cases: growth of human tumour cells (NCI), 48 h

Take `COc1cc(/C=C/c2ccc(/C=C/c3cc(OC)c(OC)c(OC)c3)cc2)cc(OC)c1OC`: the GI50 is 26.1 µM (inactive) in the test with SK-MEL-28; 55.2 µM (inactive) in the test with MDA-MB-435; 28.7 µM (inactive) in the test with HCT-116; 51.3 µM (inactive) with COLO 205; 25.5 µM (inactive) in the test with NCI-H460; 20.3 µM (inactive) with NCI-H226. Further, the GI50 was 16.3 µM (inactive) with ACHN; 20.7 µM (inactive) in the test on SK-MEL-2; 58.7 µM (inactive) in the test on UACC-257; > 46.9 µM (inactive) with EKVX; > 84.9 µM (inactive) in the test with SW-620; 60.5 µM (inactive) in the test on OVCAR-5. The GI50 in the test with HOP-18 was 32.1 µM (inactive); in the test with RXF 393 it was 6.68 µM (inactive); with NCI/ADR-RES it was 22.2 µM (inactive); in the test with OVCAR-8, 12.2 µM (inactive); in the test on HCC 2998, 22.2 µM (inactive); in the test on SK-OV-3 it was 6 µM (inactive). Besides, in the test on HL-60, the GI50 was > 66.5 µM (inactive).

Regarding `CC(O)CCC(=O)c1ccoc1` (configuration not stated), the GI50 with SK-MEL-28 was 6930 µM (inactive); in the test with MDA-MB-435 it was > 10000 µM (inactive); in the test on HCT-116, 5740 µM (inactive); with COLO 205 it was 5580 µM (inactive); in the test on NCI-H460 it was 7230 µM (inactive); with NCI-H226, 5610 µM (inactive). In addition, the GI50 was 5640 µM (inactive) in the test with ACHN; 7710 µM (inactive) with SK-MEL-2; 5130 µM (inactive) with UACC-257; 6080 µM (inactive) in the test with EKVX; > 9750 µM (inactive) in the test with SW-620; 7820 µM (inactive) in the test on OVCAR-5. In addition, the GI50 in the test with HOP-18 is 5150 µM (inactive); in the test with RXF 393, 4850 µM (inactive); in the test with NCI/ADR-RES, 4990 µM (inactive); with OVCAR-8, 6840 µM (inactive); in the test with HCC 2998 it was 8610 µM (inactive); in the test with SK-OV-3, 6970 µM (inactive). The GI50 in the test on HL-60 was 3350 µM (inactive).

As for `COc1ccc(/C(=N\NC(=S)NN)C(c2ccc(OC)cc2)C2C(=O)Oc3ccccc32)cc1` (configuration not stated), the GI50 in the test on SK-MEL-28 is 56.2 µM (inactive); in the test on HCT-116 it was > 10 µM (inactive); with COLO 205, > 10 µM (inactive); with NCI-H460 it was > 10 µM (inactive); in the test with NCI-H226, > 10 µM (inactive); with ACHN, > 10 µM (inactive). In addition, the GI50 with SK-MEL-2 was > 10 µM (inactive); in the test with UACC-257, > 10 µM (inactive); in the test with EKVX it was > 10 µM (inactive); with SW-620, > 10 µM (inactive); with OVCAR-5, > 10 µM (inactive); with HOP-18, 7.18 µM (inactive). Further, the GI50 is > 10 µM (inactive) in the test on RXF 393; > 10 µM (inactive) with OVCAR-8; 9.31 µM (inactive) with HCC 2998; > 10 µM (inactive) in the test with SK-OV-3; > 10 µM (inactive) in the test on HL-60.

As to `Nc1ncnc(NC2C=C(CO)C(O)C2O)c1[N+](=O)[O-]` (configuration not stated), the GI50 in the test with SK-MEL-28 was > 100 µM (inactive); with HCT-116 it was 32.9 µM (inactive); in the test with COLO 205, 60.3 µM (inactive); with NCI-H460, > 100 µM (inactive); in the test on NCI-H226 it was > 100 µM (inactive); with ACHN, > 100 µM (inactive). The GI50 is > 100 µM (inactive) in the test with SK-MEL-2; > 100 µM (inactive) with UACC-257; > 100 µM (inactive) with EKVX; 28.1 µM (inactive) with SW-620; > 100 µM (inactive) in the test on OVCAR-5; > 100 µM (inactive) with HOP-18. Also, the GI50 in the test with RXF 393, with OVCAR-8, in the test with HCC 2998, in the test on SK-OV-3 and with HL-60 was > 100 µM (inactive) each time.

For `CC(=O)OCCOCNC(=S)N/N=C(\C)c1cnccn1`, the GI50 with SK-MEL-28 is 42.5 µM (inactive); in the test on HCT-116, 34.3 µM (inactive); in the test with COLO 205, 28.1 µM (inactive); with NCI-H460 it was 20.9 µM (inactive); with NCI-H226, 28.1 µM (inactive); in the test with ACHN, 13.6 µM (inactive). Besides, the GI50 in the test on SK-MEL-2 is > 100 µM (inactive); with UACC-257, 43.1 µM (inactive); in the test on EKVX, 22.3 µM (inactive); in the test with SW-620 it was 23.9 µM (inactive); in the test on OVCAR-5 it was 7.53 µM (inactive); in the test on HOP-18 it was 25.4 µM (inactive). In addition, the GI50 was 23.2 µM (inactive) in the test with RXF 393; 30.1 µM (inactive) in the test on OVCAR-8; 29 µM (inactive) in the test with HCC 2998; 46.5 µM (inactive) with SK-OV-3; 15.7 µM (inactive) in the test on HL-60.

Consider `CC(C)(Br)C(Br)CC/C(=C/CBr)CBr.CC(C)(Br)C(Br)CC/C(=C\CBr)CBr` (configuration not stated), for which the GI50 is 2.27 µM (inactive) in the test on SK-MEL-28; 2.16 µM (inactive) in the test on MDA-N; 3.69 µM (inactive) in the test with MDA-MB-435; 2.13 µM (inactive) with HCT-116; 3.27 µM (inactive) with COLO 205; 3.21 µM (inactive) in the test on NCI-H460. Besides, the GI50 in the test with NCI-H226 is 14.2 µM (inactive); in the test on ACHN, 5.83 µM (inactive); in the test with SK-MEL-2 it was 3.19 µM (inactive); with UACC-257, 6 µM (inactive); with EKVX it was 25.3 µM (inactive); in the test with SW-620, 2.71 µM (inactive). Further, the GI50 is 18.6 µM (inactive) with OVCAR-5; 18 µM (inactive) with HOP-18; 2.22 µM (inactive) in the test on RXF 393; 3.11 µM (inactive) with NCI/ADR-RES; 2.54 µM (inactive) in the test with OVCAR-8; 13.5 µM (inactive) with HCC 2998. The figures for the GI50 in the test on SK-OV-3 and in the test with HL-60 were 21.4 µM (inactive) and 0.553 µM (active), respectively.

Turning to `Cc1cc(C)nc(/C(=N\NC(N)=O)C(=O)Nc2nc3ccc(C)cc3s2)c1`, the GI50 is > 100 µM (inactive) with SK-MEL-28; > 56.5 µM (inactive) with HCT-116; > 47.8 µM (inactive) in the test with COLO 205; > 100 µM (inactive) with NCI-H460; > 100 µM (inactive) with NCI-H226; > 100 µM (inactive) in the test with ACHN. Also, the GI50 with SK-MEL-2, with UACC-257, in the test on EKVX, in the test on SW-620, in the test with OVCAR-5 and in the test on HOP-18 was > 100 µM (inactive) in each case. Also, the GI50 with RXF 393, with OVCAR-8, in the test with HCC 2998, in the test with SK-OV-3 and in the test with HL-60 was > 100 µM (inactive) each time.

Turning to `CCC1=C(C)/C(=C/c2[nH]c(C(Br)Br)c(CC)c2C)N=C1C(Br)Br`, the GI50 in the test with SK-MEL-28 is 45.4 µM (inactive); in the test with HCT-116, 23.8 µM (inactive); with COLO 205, 5.87 µM (inactive); in the test with NCI-H460, 26.4 µM (inactive); with NCI-H226 it was 20.1 µM (inactive); in the test on ACHN, 14.6 µM (inactive). For the same compound, the GI50 is 38 µM (inactive) with SK-MEL-2; 19.9 µM (inactive) in the test on UACC-257; 30.1 µM (inactive) in the test with EKVX; 33.1 µM (inactive) in the test on SW-620; > 100 µM (inactive) with OVCAR-5; 84.9 µM (inactive) in the test with HOP-18. Also, the GI50 was 29.9 µM (inactive) in the test with RXF 393; 26.6 µM (inactive) in the test with OVCAR-8; 12.8 µM (inactive) in the test with HCC 2998; 25.4 µM (inactive) in the test on SK-OV-3; 16.9 µM (inactive) in the test with HL-60.

For the compound `Nc1nc(CCC(=O)Nc2cccc(C(F)(F)F)c2)cc(-c2ccc3ccccc3c2)n1`, the GI50 with SK-MEL-28, in the test with HCT-116, in the test on COLO 205, in the test on NCI-H460, with NCI-H226 and in the test on ACHN was > 100 µM (inactive) in each case. Besides, the GI50 in the test on SK-MEL-2, in the test on UACC-257, in the test on EKVX, in the test with SW-620, with OVCAR-5 and with HOP-18 was > 100 µM (inactive) throughout. Also, the GI50 in the test on RXF 393, in the test on OVCAR-8, in the test on HCC 2998, with SK-OV-3 and with HL-60 was > 100 µM (inactive) in each case.

Consider `CN(C)C(=S)/N=c1\ssc(=S)n1Cc1cccnc1`, for which the GI50 in the test on SK-MEL-28 is 9.4 µM (inactive); with MDA-N, 0.324 µM (active); with MDA-MB-435 it was 0.277 µM (active); with HCT-116, 3.2 µM (inactive); in the test with COLO 205, 2.2 µM (inactive); in the test with NCI-H460, 2.81 µM (inactive). Further, the GI50 in the test on NCI-H226 is > 55.6 µM (inactive); in the test on ACHN, 6.76 µM (inactive); in the test on SK-MEL-2 it was 2.29 µM (inactive); with UACC-257 it was 4.23 µM (inactive); in the test on EKVX it was > 88.9 µM (inactive); in the test with SW-620 it was 1.26 µM (inactive). In addition, the GI50 was 35.9 µM (inactive) in the test on OVCAR-5; > 100 µM (inactive) in the test with HOP-18; 1.47 µM (inactive) with RXF 393; 1.01 µM (active) in the test on NCI/ADR-RES; 3.66 µM (inactive) in the test with OVCAR-8; 2.54 µM (inactive) in the test with HCC 2998. For the same compound, the GI50 in the test with SK-OV-3 was 4.36 µM (inactive); in the test with HL-60, 1.76 µM (inactive).

Consider `O=C(OC1CC(n2cc(F)c(=O)[nH]c2=O)OC1CSC(=O)c1ccccc1)c1ccccc1` (configuration not stated), for which the GI50 in the test on SK-MEL-28 is 48 µM (inactive); in the test on HCT-116, 34.8 µM (inactive); in the test with COLO 205, 29.6 µM (inactive); in the test on NCI-H460, 35.3 µM (inactive); with NCI-H226 it was 31.3 µM (inactive); in the test with ACHN, 34.6 µM (inactive). For the same compound, the GI50 in the test with SK-MEL-2 was 48.5 µM (inactive); in the test with UACC-257, 29.2 µM (inactive); in the test on EKVX, 33.3 µM (inactive); in the test with SW-620, 30.8 µM (inactive); with OVCAR-5 it was 61.8 µM (inactive); in the test with HOP-18, 33.3 µM (inactive). In addition, the GI50 is 27.3 µM (inactive) in the test on RXF 393; 34.8 µM (inactive) with OVCAR-8; 4.85 µM (inactive) in the test with HCC 2998; > 100 µM (inactive) with SK-OV-3; 23.3 µM (inactive) with HL-60.
